The NIST ThermoML archive (doi:10.1016/j.jct.2012.06.023)

Assay: xn = mol fraction of the nth substance listed
Conditions: for surface tension liquid-gas: Wilhelmy plate; for viscosity: 101 kPa, Liquid, Concentric cylinders viscometry

CCCCCCCO [heptan-1-ol] + CN(C)C=O
Conditions | surface tension liquid-gas, 298.15 K [mN/m] | surface tension liquid-gas, 303.15 K [mN/m] | surface tension liquid-gas, 308.15 K [mN/m] | surface tension liquid-gas, 313.15 K [mN/m] | viscosity, 298.15 K [mPa·s] | viscosity, 303.15 K [mPa·s] | viscosity, 308.15 K [mPa·s] | viscosity, 313.15 K [mPa·s]
x2 = 0 | 26.47 | 25.38 | 24.33 | 23.5 | 5.944 | 5.069 | 4.333 | 3.726
x2 = 0.1852 | 27.06 | 25.94 | 24.87 | 24.01 | 3.662 | 3.061 | 2.599 | 2.21
x2 = 0.3466 | 27.51 | 26.35 | 25.25 | 24.34 | 2.48 | 2.044 | 1.734 | 1.465
x2 = 0.4928 | 27.98 | 26.77 | 25.64 | 24.69 | 1.77 | 1.452 | 1.238 | 1.048
x2 = 0.6004 | 28.74 | 27.52 | 26.38 | 25.41 | 1.432 | 1.183 | 1.021 | 0.8722
x2 = 0.6878 | 29.48 | 28.25 | 27.1 | 26.11 | 1.224 | 1.026 | 0.898 | 0.7775
x2 = 0.7679 | 30.53 | 29.32 | 28.17 | 27.17 | 1.079 | 0.9233 | 0.8218 | 0.7462
x2 = 0.8369 | 31.64 | 30.44 | 29.3 | 28.3 | 0.9874 | 0.8807 | 0.7949 | 0.7165
x2 = 0.8984 | 32.86 | 31.7 | 30.57 | 29.57 | 0.918 | 0.8403 | 0.7775 | 0.7082
x2 = 0.951 | 34.06 | 32.93 | 31.82 | 30.82 | 0.8665 | 0.8038 | 0.7541 | 0.6934
